The values that follow come from patent publication US4310533A, “Guanidinobenzoic acid derivatives” (Ono Pharmaceutical Co., Ltd., priority 1979, dated 1982).

Usually solubility stands for how much of the substance goes into solution per volume. A higher solubility goes with much dissolved substance.

Structures are written as SMILES. Structures can show the parent of a compound that is named as a salt.

Series [1] is described as follows: Solubility in water. Format: physicochemical.
In series [2] the target is T1, trypsin (Bos taurus, UniProt P00760).
T1 sequence (P00760 24-246): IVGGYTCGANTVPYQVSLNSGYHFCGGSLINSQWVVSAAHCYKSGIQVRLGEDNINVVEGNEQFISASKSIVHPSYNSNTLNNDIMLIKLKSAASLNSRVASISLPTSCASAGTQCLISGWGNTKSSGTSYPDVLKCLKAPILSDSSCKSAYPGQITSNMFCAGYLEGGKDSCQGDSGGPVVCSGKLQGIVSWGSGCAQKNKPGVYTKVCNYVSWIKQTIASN
The series is described as follows: Inhibitory activity on trypsin in vitro (hydrolysis of p-tosylarginine methyl ester). Format: biochemical. The settings on record: trypsin 0.5 μg, 37° C., 30 minutes, read-out: 50% Inhibition Concentration (molar concentration), Anti-Trypsin. How it is done: The inhibitory activities on trypsin and plasmin in vitro were determined by the methods of M. Muramatsu et al. described in the Journal of Biochemistry, 58, 214 (1965) for trypsin, and ibid., 57, 402 (1964) for plasmin, and the results are shown in Table 1
^(1) The concentration of the compounds represented by the general
formula (I) at which the activity of trypsin 0.5 μg to hydrolyze
ptosylarginine methyl ester was 50% inhibited, when treated at 37°

In series [3] the target is T2, plasmin (Homo sapiens, UniProt P00747).
T2 construct: from tissue; host or cells: human euglobulin (plasma fraction), with streptokinase added
The series is described as follows: Inhibitory activity on plasmin in vitro (euglobulin/streptokinase/fibrinogen system). Format: biochemical. Conditions: human euglobulin, streptokinase, fibrinogen, borate saline buffer pH 7.4, 37° C., 30 minutes; read-out: 50% Inhibition Concentration (molar concentration), Anti-Plasmin.
Description: ^(2) The concentration of the compounds represented by the general
formula (I) at which the activity of plasmin was 50% inhibited, when
reacted in a system comprising 0.1 ml of humaneuglobulin (10 fold
dilution), 0.1 ml of streptokinase (2,000 unit/ml), 0.4 ml of fibrinogen
(4% solution), 0.3 ml of a 0.1M borate saline buffer solution (pH 7.4) an
0.1 ml of a solution of each of the compounds at 37° C. for 30

For series [4], the system named is plasmin. The settings on record: prior art; cited from earlier work.

T2 sequence (P00747 581-810 limits assumed): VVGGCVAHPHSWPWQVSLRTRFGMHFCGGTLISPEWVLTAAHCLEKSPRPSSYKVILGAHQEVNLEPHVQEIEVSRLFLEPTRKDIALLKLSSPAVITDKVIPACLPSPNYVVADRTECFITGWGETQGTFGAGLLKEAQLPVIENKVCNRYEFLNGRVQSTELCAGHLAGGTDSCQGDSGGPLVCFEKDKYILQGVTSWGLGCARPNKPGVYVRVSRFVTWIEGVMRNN
T2 sequence (P00747 97-580 limits assumed): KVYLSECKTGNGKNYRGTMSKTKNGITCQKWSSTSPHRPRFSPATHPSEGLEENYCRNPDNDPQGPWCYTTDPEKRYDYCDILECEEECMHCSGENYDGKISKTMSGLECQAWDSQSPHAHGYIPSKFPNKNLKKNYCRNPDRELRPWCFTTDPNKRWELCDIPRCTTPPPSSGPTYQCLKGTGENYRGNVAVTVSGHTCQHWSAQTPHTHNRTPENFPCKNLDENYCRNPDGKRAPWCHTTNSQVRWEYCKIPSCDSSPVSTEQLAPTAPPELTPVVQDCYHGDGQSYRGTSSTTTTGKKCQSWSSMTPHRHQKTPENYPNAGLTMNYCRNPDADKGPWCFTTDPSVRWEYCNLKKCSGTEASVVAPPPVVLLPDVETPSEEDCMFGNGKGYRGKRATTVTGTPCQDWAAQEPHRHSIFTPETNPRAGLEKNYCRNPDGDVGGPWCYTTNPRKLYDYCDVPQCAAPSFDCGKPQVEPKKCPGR

`CS(=O)(=O)O.N=C(N)Nc1ccc(C(=O)Oc2ccc(C(=O)OCC(=O)N3CCCCC3)cc2)cc1` [Compound No. 1, piperidinocarbonylmethyl 4-(4-guanidinobenzoyloxy)benzoate mesylate]: the solubility in series [1] was 20 mM. Moreover, the IC50 came out at 0.5 nM in series [2] and 0.45 nM in series [3].
On the same counts, the results for `N=C(N)Nc1ccc(C(=O)Oc2ccc(C(=O)OCC(=O)NC3CCCCC3)cc2)cc1` [Compound No. 2, N-cyclohexylcarbamoylmethyl 4-(4-guanidinobenzoyloxy)benzoate mesylate] are 20 mM, 0.18 nM and 0.13 nM.
`NC[C@H]1CC[C@H](C(=O)O)CC1` [Compound No. 3, trans-4-aminomethylcyclohexanecarboxylic acid]: in series [4], the “anti-plasmin activity (in words)” value is “relatively low activities”.
